Source: patent US10035759B2, “Method of chromatographic separation” (The Procter & Gamble Company, priority 2015, dated 2018)

Test system: human TRPM8
Experiment: TRPM8 FLIPR assay: intracellular Ca2+ level in HEK-293 cells stably transfected with human TRPM8
Format: cell-based
Settings: dose 30 uM
Protocol: TRPM8 activation was determined by measuring intracellular calcium ion (Ca^2+) level from transfected cells with the TRPM8 receptor gene, as described in CELL CULTURE PROTOCOL EXAMPLE, the results of which are shown in TABLES 2 and 3.
To determine what effect, if any, test compounds had on TRPM8 (SEQ ID NO: 1) activation the protocols listed below were used.
TRPM8 Protocol-FLIPR Assay
To determine whether TRPM8 is activated, the intracellular calcium ion (Ca^2+) level was measured from transfected cells with the TRPM8 receptor sequence (SEQ ID NO: 1). HEK-293 (human embryonic kidney) cells stably transfected with human TRPM8 were grown in 15 ml growth medium (high glucose DMEM (Dulbecco's Modification of Eagle's Medium) supplemented with 10% FBS (fetal bovine serum), 100 ug/ml penicillin/streptomycin, 5 μg/ml blasticindin, and 100 μg/ml zeocin) in a 75 cm^2 flask for 3 days at 37° C. in a mammalian cell culture incubator set at 5% CO2. Cells were detached with addition of 2 ml of trypsin-EDTA buffer (GIBCO® 25200, Invitrogen, Grand Island, N.Y.) for about 2-3 min. Trypsin was inactivated by addition of 8 ml growth medium. Cells were transferred to a 50 ml tube and centrifuged at 850 rpm for 3 minutes to remove medium. After centrifugation, a pellet of cells was formed in the bottom of the tube separating them from the supernatant solution. […] Fluo-4 AM is a fluorescent dye used for quantifying cellular Ca^2+ concentrations in the 100 nM to 1 microM range. […]
The pelleted cells were re-suspended in 10 ml assay buffer and 90 al aliquots (˜50,000 cells) per well delivered to a 96-well assay plate containing 10 al of test compounds (1 mM in assay buffer, […]) or buffer control and incubated at room temperature for 30 minutes. After 30 minutes, a plate was placed into a fluorometric imaging plate reader (FLIPR TETRA from Molecular Devices, Sunnyvale, Calif.) and basal fluorescence recorded (excitation wave length 488 nm and emission wave length 510 nm). Then 20 μl of 180 μM solution of TRPM8 agonist WS5 coolant was added to the assay buffer and the fluorescence signals were automatically recorded by FLIPR. For determining the direct effect of test compounds on TRPM8, fluorescence was measured immediately after addition of each compound (TABLES 2 and 3). Additional discussion of the FLIPR method can be found in Smart et al., Characterization using FLIPR of human vanilloid VR1 receptor pharmacology, European Journal of Pharmacology 417, 51-58 (2001) and Liu et al., Development and validation of a platelet calcium flux assay using a fluorescent imaging plate reader, Analytical Biochemistry 357, 216-224 (2006).

CCOC(=O)CNC(=O)C1CC(C)CCC1C(C)C (stereo not shown) [WS-5, N-ethoxycarbonylmethyl-ρ-menthan-3-carboxamide]
100.0%: 50 sec % of WS5 (50 sec) | 3 min % of WS5 (3 min) | 5 min % of WS5 (5 min) | 10 min % of WS5 (10 min)
